The values below are quoted from earlier work in patent US20240299301A1, “LIPID NANOPARTICLES AND METHOD FOR PREPARING SAME” (THERNA THERAPEUTICS, priority 2021, published 2024).

For `CCCCC/C=C\C/C=C\CCCCCCCCC(CCCCCCCC/C=C\C/C=C\CCCCC)OC(=O)CCCN(C)C` [DLin-MC3-DMA, (6Z, 9Z, 28Z, 31Z)-heptatriaconta 6,9,28,31-tetraen-19-yl 4-(dimethylamino)butanoate], the “pKa of the amine group” value is listed as “about 6.5”.
